This is an account of results in patent US6355453B1, “Method for making fluorinated sugars having a side chain and use thereof” (Forschungszentrum Julich GmbH, priority 1998, dated 2002).

In series [1] the target is T1, N-acetylneuraminic acid aldolase (Escherichia coli, UniProt P0A6L4). Put plainly: Kinetic study of the aldolase-catalysed ManNAc/F-pyr reaction (Equation 1, non-linear regression of initial-rate data).
Series [2] concerns the target T1, N-acetylneuraminic acid aldolase. As to conditions: value given in the literature; read-out: Km value for the standard ManNAc/Pyr reaction; cited from earlier work.
Series [3] relates to O=C(O)C(=O)CF. Nature of the series: purified protein, by the assay type. As to conditions: other: ManNAc/F-pyr reaction, 24 U*/ml aldolase, pH 7.5, 25° C.

On to `O=C(O)C(=O)CF` [F-Pyr, 1-fluoro-2-oxopropanoic acid], for which the Ki in series [1] turned out to be 49 mM. For the same compound, in series [1] (enzyme charge of >24 U*/mg), the “maximal activity of the reaction” value is 0.9 U/mg. As to `CC(=O)C(=O)O` [Pyr, pyruvic acid], in series [2], the Km was 8.5 mM. As for “N-acetylneuraminic acid aldolase (Escherichia coli K-12)”, in series [3], the Km came out at 41 mM.

As a reminder, the Ki is a measure of affinity in units of concentration, obtained from inhibition or displacement. Lower therefore signals higher affinity.
